tested on: HT-29 cells; assay: HT-29 necroptosis cell viability assay (TNF-α/SMAC mimetic/zVAD-FMK, CellTiter-Glo); format: cell-based; conditions: Homo sapiens, HT-29, HT-29 cells, necroptosis induced by TNF-α/SMAC mimetic/zVAD-FMK, CellTiter-Glo; read-out: Activity (IC50 class)
Outline: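 HT-29 cells (~5,000/well, overnight) in FBS-free McCoy's 5A with TNF-α 10 ng/ml, SMAC mimetic 6 μM and zVAD-FMK 10 μM plus 10-point 1:3 compound titration, 20 h at 37°C. ATP measured by CellTiter-Glo luminescence; IC50 as geometric mean of duplicates.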

Work on `Cc1nc(C#N)sc1Oc1ncc(-n2ncn(Cc3c(F)cccc3F)c2=O)cc1Cl` [Example 653, 5-[[3-chloro-5-[4-[(2,6-difluorophenyl)methyl]-5-oxo-1,2,4-triazol-1-yl]-2-pyridyl]oxy]-4-methyl-thiazole-2-carbonitrile] yielded an IC50 of 100 to 1000 nM.

same assay, conditions: Homo sapiens, HT-29, HT-29 necroptosis cell viability assay; class symbols for IC50; read-out: Activity

`Cn1c(C(C)(C)O)cnc1Oc1ccc(-n2ncn(Cc3c(F)cccc3F)c2=O)cc1F` [Example 132, 4-(2,6-difluorobenzyl)-2-(3-fluoro-4-((5-(2-hydroxypropan-2-yl)-1-methyl-1H-imidazol-2-yl)oxy)phenyl)-2,4-dihydro-3H-1,2,4-triazol-3-one] and `Cc1cc(C(=O)O)nn1Cc1ccc(-n2ncn(Cc3c(F)cccc3F)c2=O)cc1F` [Example 216, 1-(4-(4-(2,6-difluorobenzyl)-5-oxo-4,5-dihydro-1H-1,2,4-triazol-1-yl)-2-fluorobenzyl)-5-methyl-1H-pyrazole-3-carboxylic acid] fall in the same range of IC50: 1000 to 10000 nM for the first, 1000 to 10000 nM for the second.

First: CCOC1(C)CN(c2cc(Oc3ccc(-n4ncn(Cc5c(F)cccc5F)c4=O)cc3Cl)c(Cl)cn2)C1 [Example 504, 2-(3-chloro-4-((5-chloro-2-(3-ethoxy-3-methylazetidin-1-yl)pyridin-4-yl)oxy)phenyl)-4-(2,6-difluorobenzyl)-2,4-dihydro-3H-1,2,4-triazol-3-one]
Second: Cc1cc(C)n(Cc2ccc(-n3ncn(Cc4c(F)cccc4F)c3=O)cc2)c1 [Example 188, 4-(2,6-difluorobenzyl)-2-(4-((2,4-dimethyl-1H-pyrrol-1-yl)methyl)phenyl)-2,4-dihydro-3H-1,2,4-triazol-3-one]
The IC50 of the first is lower: < 100 nM for the first, 100 to 1000 nM for the second.

`CCC(O)(CC)c1nc(C)c(Oc2ccc(-n3ncn(Cc4c(F)cccc4F)c3=O)cc2)s1` [Example 577, 4-(2,6-difluorobenzyl)-2-(4-((2-(3-hydroxypentan-3-yl)-4-methylthiazol-5-yl)oxy)phenyl)-2,4-dihydro-3H-1,2,4-triazol-3-one] and `Cc1nc(C2CCOCC2)sc1Oc1ccc(-n2ncn(Cc3c(F)cccc3F)c2=O)cc1` [Example 551, 4-(2,6-difluorobenzyl)-2-(4-((4-methyl-2-(tetrahydro-2H-pyran-4-yl)thiazol-5-yl)oxy)phenyl)-2,4-dihydro-3H-1,2,4-triazol-3-one] cannot be ordered by IC50: < 100 nM for the first, < 100 nM for the second.

`Cn1nc(C(C)(C)O)cc1Oc1ccc(-n2nc3n(c2=O)C(c2ccccc2)CC3)cc1F` (centres unmarked) [Example 130, 2-(3-fluoro-4-((3-(2-hydroxypropan-2-yl)-1-methyl-1H-pyrazol-5-yl)oxy)phenyl)-5-phenyl-2,5,6,7-tetrahydro-3H-pyrrolo[2,1-c][1,2,4]triazol-3-one] and `Cc1cn(Cc2ccc(-n3nc4n(c3=O)C(c3ccccc3)CC4)cc2F)c(C)c1C(N)=O` (centres unmarked) [Example 222, 1-(2-fluoro-4-(3-oxo-5-phenyl-6,7-dihydro-3H-pyrrolo[2,1-c][1,2,4]triazol-2(5H)-yl)benzyl)-2,4-dimethyl-1H-pyrrole-3-carboxamide] cannot be ordered by IC50: < 100 nM for the first, < 100 nM for the second.

same assay, conditions: Homo sapiens, HT-29, HT-29 necroptosis cell viability, IC50 class symbols; read-out: Activity

`Nc1cccc(Cl)c1Oc1ccc(-n2ncn(Cc3c(F)cccc3F)c2=O)cc1` [Example 440, 2-(4-(2-amino-6-chlorophenoxy)phenyl)-4-(2,6-difluorobenzyl)-2,4-dihydro-3H-1,2,4-triazol-3-one] and `C[C@H]1C[C@@H](O)CN1c1cc(Oc2ccc(-n3ncn(Cc4c(F)cccc4F)c3=O)cc2)ccn1` [Example 289, 4-(2,6-difluorobenzyl)-2-(4-((2-((2S,4R)-4-hydroxy-2-methylpyrrolidin-1-yl)pyridin-4-yl)oxy)phenyl)-2,4-dihydro-3H-1,2,4-triazol-3-one] cannot be ordered by IC50: < 100 nM for the first, < 100 nM for the second.

Compared with `C[C@H]1C[C@@H](NC(=O)OC(C)(C)C)CN1c1cc(Oc2ccc(-n3ncn(Cc4c(F)cccc4F)c3=O)cc2F)ccn1` [Example 368, tert-butyl ((3R,5S)-1-(4-(4-(4-(2,6-difluorobenzyl)-5-oxo-4,5-dihydro-1H-1,2,4-triazol-1-yl)-2-fluorophenoxy)pyridin-2-yl)-5-methylpyrrolidin-3-yl)carbamate], `C[C@H]1[C@H](C#N)CN1c1cc(Oc2ccc(-n3ncn(Cc4c(F)cccc4F)c3=O)cc2F)c(F)cn1` [Example 232, (2S,3R)-1-(4-(4-(4-(2,6-difluorobenzyl)-5-oxo-4,5-dihydro-1H-1,2,4-triazol-1-yl)-2-fluorophenoxy)-5-fluoropyridin-2-yl)-2-methylazetidine-3-carbonitrile] is lower in IC50: 100 to 1000 nM for the first, < 100 nM for the second.

First: O=c1n(Cc2c(F)cccc2F)cnn1-c1ccc(Oc2ccnc(N3CC4(CCCOC4)C3)c2)cc1 [Example 335, 2-(4-((2-(6-oxa-2-azaspiro[3.5]nonan-2-yl)pyridin-4-yl)oxy)phenyl)-4-(2,6-difluorobenzyl)-2,4-dihydro-3H-1,2,4-triazol-3-one]
Second: O=c1n(Cc2c(F)cccc2F)cnn1-c1ccc(Oc2ccnc(N3CCOC4(COC4)C3)c2)cc1 [Example 269, 2-(4-((2-(2,5-dioxa-8-azaspiro[3.5]nonan-8-yl)pyridin-4-yl)oxy)phenyl)-4-(2,6-difluorobenzyl)-2,4-dihydro-3H-1,2,4-triazol-3-one]
The IC50 of the first is lower: < 100 nM for the first, 100 to 1000 nM for the second.

First: C[C@H]1[C@@H](C#N)CN1c1nccc(Oc2ccc(-n3ncn(Cc4c(F)cccc4F)c3=O)cc2)c1F [Example 242, (2S,3S)-1-(4-(4-(4-(2,6-difluorobenzyl)-5-oxo-4,5-dihydro-1H-1,2,4-triazol-1-yl)phenoxy)-3-fluoropyridin-2-yl)-2-methylazetidine-3-carbonitrile]
Second: O=c1n(Cc2c(F)cccc2F)cnn1-c1ccc(Oc2ccnc(N3CC(F)(C4CC4)C3)c2)cc1 [Example 280, 2-(4-((2-(3-cyclopropyl-3-fluoroazetidin-1-yl)pyridin-4-yl)oxy)phenyl)-4-(2,6-difluorobenzyl)-2,4-dihydro-3H-1,2,4-triazol-3-one]
The IC50 of the first is lower: < 100 nM for the first, 100 to 1000 nM for the second. The first is the more potent here.

First: Cc1nc(N2CCOCC2)sc1Oc1ccc(-n2ncn(Cc3c(F)cccc3F)c2=O)cc1F [Example 295, 4-(2,6-difluorobenzyl)-2-(3-fluoro-4-((4-methyl-2-morpholinothiazol-5-yl)oxy)phenyl)-2,4-dihydro-3H-1,2,4-triazol-3-one]
Second: NC1(CO)CN(c2cc(Oc3ccc(-n4ncn(Cc5c(F)cccc5F)c4=O)cc3F)c(F)cn2)C1 [Example 378, 2-(4-((2-(3-amino-3-(hydroxymethyl)azetidin-1-yl)-5-fluoropyridin-4-yl)oxy)-3-fluorophenyl)-4-(2,6-difluorobenzyl)-2,4-dihydro-3H-1,2,4-triazol-3-one]
The IC50 of the first is lower: < 100 nM for the first, 100 to 1000 nM for the second. The first is the more potent here.

Compared with `O=c1n(-c2ccc(Oc3ccccc3[N+](=O)[O-])cc2)nc(Cl)n1Cc1ccccc1` [Example 430, 4-benzyl-5-chloro-2-(4-(2-nitrophenoxy)phenyl)-2,4-dihydro-3H-1,2,4-triazol-3-one], `Cc1cnc(NC23CC(C#N)(C2)C3)cc1Oc1ccc(-n2ncn(Cc3c(F)cccc3F)c2=O)cc1Cl` [Example 267, 3-((4-(2-chloro-4-(4-(2,6-difluorobenzyl)-5-oxo-4,5-dihydro-1H-1,2,4-triazol-1-yl)phenoxy)-5-methylpyridin-2-yl)amino)bicyclo[1.1.1]pentane-1-carbonitrile] is lower in IC50: 100 to 1000 nM for the first, < 100 nM for the second.

In the case of `CC1(C)COC(Nc2cc(Oc3ccc(-n4ncn(Cc5c(F)cccc5F)c4=O)cc3F)c(F)cn2)=N1` [Example 474, 4-(2,6-difluorobenzyl)-2-(4-((2-((4,4-dimethyl-4,5-dihydrooxazol-2-yl)amino)-5-fluoropyridin-4-yl)oxy)-3-fluorophenyl)-2,4-dihydro-3H-1,2,4-triazol-3-one], the IC50 is reported as 100 to 1000 nM.

same assay, conditions: Homo sapiens, HT-29, read-out: Activity (IC50 class)

`Cc1sc(CCO)nc1Oc1ccc(-n2ncn(Cc3c(F)cccc3F)c2=O)cc1F` [Example 652, 4-[(2,6-difluorophenyl)methyl]-2-[3-fluoro-4-[2-(2-hydroxyethyl)-5-methyl-thiazol-4-yl]oxy-phenyl]-1,2,4-triazol-3-one] was tested, and the IC50 was 100 to 1000 nM.

same assay, conditions: Homo sapiens; HT-29 cells stimulated with TNF-α (10 ng/ml), SMAC mimetic (6 μM) and zVAD-FMK (10 μM); 20 hours; CellTiter-Glo ATP luminescence; geometric mean IC50 from 10 points; read-out: Activity

`Cc1nc(C2(F)CC(O)C2)sc1Oc1ccc(-n2ncn(Cc3c(F)cccc3F)c2=O)cc1F` (centres unmarked) [Example 110, 4-(2,6-difluorobenzyl)-2-(3-fluoro-4-((2-(1-fluoro-3-hydroxycyclobutyl)-4-methylthiazol-5-yl)oxy)phenyl)-2,4-dihydro-3H-1,2,4-triazol-3-one] and `Cc1nc(C2CC(C)(O)C2)sc1Oc1ccc(-n2ncn(Cc3c(F)cccc3F)c2=O)cc1F` (centres unmarked) [Example 119, 4-(2,6-difluorobenzyl)-2-(3-fluoro-4-((2-(3-hydroxy-3-methylcyclobutyl)-4-methylthiazol-5-yl)oxy)phenyl)-2,4-dihydro-3H-1,2,4-triazol-3-one] cannot be ordered by IC50: < 100 nM for the first, < 100 nM for the second.

`Cc1nc(C#N)sc1Oc1ccc(-n2ncn(Cc3c(F)cccc3F)c2=O)cc1` [Example 87, 5-(4-(4-(2,6-difluorobenzyl)-5-oxo-4,5-dihydro-1H-1,2,4-triazol-1-yl)phenoxy)-4-methylthiazole-2-carbonitrile] and `Cc1nc(N2C[C@H](C#N)[C@@H]2C)sc1Oc1ccc(-n2ncn(Cc3c(F)cccc3F)c2=O)cc1` [Example 44, (2S,3S)-1-(5-(4-(4-(2,6-difluorobenzyl)-5-oxo-4,5-dihydro-1H-1,2,4-triazol-1-yl)phenoxy)-4-methylthiazol-2-yl)-2-methylazetidine-3-carbonitrile] cannot be ordered by IC50: < 100 nM for the first, < 100 nM for the second.

`Cc1nc(C(N)=O)sc1Oc1ccc(-n2nc3n(c2=O)C(c2ccccc2)CC3)cc1F` (centres unmarked) [Example 13, 5-(2-fluoro-4-(3-oxo-5-phenyl-6,7-dihydro-3H-pyrrolo[2,1-c][1,2,4]triazol-2(5H)-yl)phenoxy)-4-methylthiazole-2-carboxamide] and `Cn1nc(C(N)=O)nc1Oc1ccc(-n2nc3n(c2=O)[C@H](c2ccccc2)CC3)cc1F` (single isomer, unassigned) [Example 692] cannot be ordered by IC50: < 100 nM for the first, < 100 nM for the second.

Source: US20250179061A1 (SIRONAX LTD., priority 2022, published 2025)
